Substitutions are numbered along the chain they refer to.
Key:
[1] = Gastrointestinal tolerability observation in rats; type: in vivo, rat
hCOX-2 = target: T1, hCOX-2 (Homo sapiens, UniProt P35354); assay: Time-dependent COX inhibition assay; type: biochemical
T1 sequence (P35354 18-604): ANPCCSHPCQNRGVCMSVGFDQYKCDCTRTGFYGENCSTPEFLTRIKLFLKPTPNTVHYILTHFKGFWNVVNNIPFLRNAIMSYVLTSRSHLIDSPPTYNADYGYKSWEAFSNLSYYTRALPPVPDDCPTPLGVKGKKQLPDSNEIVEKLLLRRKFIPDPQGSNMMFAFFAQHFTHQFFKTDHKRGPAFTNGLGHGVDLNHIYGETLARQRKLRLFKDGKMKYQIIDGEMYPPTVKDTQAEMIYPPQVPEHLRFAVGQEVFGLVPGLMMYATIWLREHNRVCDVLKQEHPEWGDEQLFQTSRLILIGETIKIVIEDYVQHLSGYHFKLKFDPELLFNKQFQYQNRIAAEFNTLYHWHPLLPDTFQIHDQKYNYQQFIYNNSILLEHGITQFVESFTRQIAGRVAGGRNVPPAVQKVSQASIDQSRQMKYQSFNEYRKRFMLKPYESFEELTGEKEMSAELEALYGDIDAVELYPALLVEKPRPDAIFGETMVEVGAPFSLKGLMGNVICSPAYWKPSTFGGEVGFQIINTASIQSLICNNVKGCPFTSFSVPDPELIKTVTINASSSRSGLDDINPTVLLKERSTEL

oCOX-1 = target: T2, oCOX-1 (Ovis aries, UniProt P05979); assay: COX inhibition screening assay; type: biochemical, ovine
T2 sequence (P05979 25-600): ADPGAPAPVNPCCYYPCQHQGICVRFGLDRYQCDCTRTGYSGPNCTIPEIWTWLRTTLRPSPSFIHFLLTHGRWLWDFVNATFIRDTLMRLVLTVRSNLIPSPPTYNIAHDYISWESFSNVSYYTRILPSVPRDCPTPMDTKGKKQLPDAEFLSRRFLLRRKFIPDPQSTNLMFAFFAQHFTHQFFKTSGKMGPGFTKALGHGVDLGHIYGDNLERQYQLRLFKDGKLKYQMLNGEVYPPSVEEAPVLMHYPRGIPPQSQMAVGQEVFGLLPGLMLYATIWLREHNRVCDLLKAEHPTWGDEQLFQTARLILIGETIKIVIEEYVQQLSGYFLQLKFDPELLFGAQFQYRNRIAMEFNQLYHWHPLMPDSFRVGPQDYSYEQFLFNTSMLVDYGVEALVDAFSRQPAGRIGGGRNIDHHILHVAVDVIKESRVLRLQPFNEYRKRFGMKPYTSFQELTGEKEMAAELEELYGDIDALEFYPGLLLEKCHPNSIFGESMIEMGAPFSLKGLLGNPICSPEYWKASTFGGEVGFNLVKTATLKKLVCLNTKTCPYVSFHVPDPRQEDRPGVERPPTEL

mV523I (mCOX-2 mutant) = target: T3, mV523I (mCOX-2 mutant) (Mus musculus, UniProt Q05769, V509I); assay: COX inhibition screening assay, mCOX-2 V523I mutant; type: biochemical
T3 sequence (Q05769 18-604 V509I): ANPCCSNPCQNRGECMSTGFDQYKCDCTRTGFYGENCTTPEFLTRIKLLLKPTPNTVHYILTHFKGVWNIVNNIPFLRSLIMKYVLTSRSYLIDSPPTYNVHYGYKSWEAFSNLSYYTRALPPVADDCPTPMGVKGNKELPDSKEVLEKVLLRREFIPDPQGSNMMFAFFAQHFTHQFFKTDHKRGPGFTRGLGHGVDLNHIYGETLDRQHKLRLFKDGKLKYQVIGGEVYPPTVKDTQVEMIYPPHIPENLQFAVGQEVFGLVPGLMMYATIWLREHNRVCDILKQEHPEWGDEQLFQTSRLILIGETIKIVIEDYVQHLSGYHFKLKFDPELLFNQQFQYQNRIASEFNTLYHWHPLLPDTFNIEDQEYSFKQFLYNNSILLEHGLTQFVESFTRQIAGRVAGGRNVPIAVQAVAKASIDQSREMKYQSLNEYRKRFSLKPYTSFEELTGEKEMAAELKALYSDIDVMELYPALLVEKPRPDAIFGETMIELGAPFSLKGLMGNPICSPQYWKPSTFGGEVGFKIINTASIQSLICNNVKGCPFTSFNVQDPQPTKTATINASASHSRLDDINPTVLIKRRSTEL

mY355F (mCOX-2 mutant) = target: T4, mY355F (mCOX-2 mutant) (Mus musculus, UniProt Q05769, Y341F); assay: COX inhibition screening assay, mCOX-2 Y355F mutant; type: biochemical; settings: inhibitor concentrations of up to 100 μM
T4 sequence (Q05769 18-604 Y341F): T3 sequence (Q05769 18-604 V509I) with Y324F, I492V

[2] = system: carrageenan-induced rat paw edema; assay: Carrageenan-induced rat footpad edema model; type: in vivo; settings: oral in corn oil 1 h postcarrageenan, footpad volume 2 h later
mR120A (mCOX-2 mutant) = target: T5, mR120A (mCOX-2 mutant) (Mus musculus, UniProt Q05769, R106A); assay: COX inhibition screening assay, mCOX-2 R120A mutant; type: biochemical; settings: inhibitor concentrations of up to 100 μM
T5 sequence (Q05769 18-604 R106A): T3 sequence (Q05769 18-604 V509I) with R89A, I492V

COX-2 = settings: also, to some extent, COX-1; cited from earlier work
[3] = Sprague–Dawley rats, doses higher than 2 mg/kg; ref previous studies; cited from earlier work

Row | KI for initial binding to COX-2, fold lower than for indomethacin (hCOX-2) | Ki (hCOX-2) [nM] | k2, fold slower than for indomethacin (hCOX-2) [fold] | k2/KI, fold greater than for indomethacin (hCOX-2) | forward rate constant (k2) (hCOX-2; wild-type hCOX-2) [s^–1] | IC50 (oCOX-1) [nM] | effect on oCOX-1 (oCOX-1; up to very high inhibitor concentrations (100 μM)) | IC50 (mV523I (mCOX-2 mutant)) [nM] | inhibition of Tyr355 to Phe mutant of COX-2 (mY355F (mCOX-2 mutant)) | inhibition of Arg-120 to Ala mutant of COX-2 (mR120A (mCOX-2 mutant)) | Compound | gastrointestinal bleeding ([1]; rat, oral, tested up to 10 mg/kg) | overnight observation after testing ([1]; treated rats maintained overnight) | EC50, anti-inflammatory activity [2] [mg/kg] | COX-2 inhibition (type) (COX-2) | gastric toxicity at higher doses [3]
1 | approximately 9 fold | 1500 ± 260 | 3 | approximately 3 fold | 0.020 ± 0.001 | > 100000 | no appreciable effect | > 4000 | unable to inhibit | unable to inhibit | COc1ccc2c(c1)c(CC(=O)O)c(C(F)(F)F)n2C(=O)c1ccc(Cl)cc1 [CF3–indomethacin, 2-(1-(4-chlorobenzoyl)-5-methoxy-2′-trifluoromethyl-1H-indol-3-yl)ethanoic acid] | no evidence of gastrointestinal bleeding | no passage of blood from the gastrointestinal tract was observed | 1.7 | – | –
2 | – | – | – | – | – | – | – | – | – | – | COc1ccc2c(c1)c(CC(=O)O)cn2C(=O)c1ccc(Cl)cc1 [des-methyl derivative] | – | – | – | weak, reversible inhibitor | –
3 | – | – | – | – | – | – | – | – | – | – | COc1ccc2c(c1)c(CC(=O)O)c(C)n2C(=O)c1ccc(Cl)cc1 [indomethacin, 2-(1-(4-chlorobenzoyl)-5-methoxy-2′-methyl-1H-indol-3-yl)ethanoic acid, reference compound] | – | – | 1.0 | – | substantial gastric erosion and bleeding
